Reference: ChEMBL document CHEMBL1201862, “PubChem BioAssay data set” (2004)
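All cell lines were grown in 96-well plates and treated with compound for 48 hours. At the GI50, growth is halved.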 Active and inactive are the calls of the source. Rule as the data show it: active = GI50 up to about 1.1 µM and inactive = higher.

Assays:
Experiment in all cases: NCI tumour cell line growth inhibition, 48 h
HCC 2998 = tested on: HCC 2998
Malme-3M = tested on: Malme-3M
M14 = tested on: M14
HL-60 = tested on: HL-60
U-251 = tested on: U-251
OVCAR-5 = tested on: OVCAR-5
MCF7 = tested on: MCF7
UO-31 = tested on: UO-31
786-0 = tested on: 786-0
NCI/ADR-RES = tested on: NCI/ADR-RES
SK-MEL-2 = tested on: SK-MEL-2
MOLT-4 = tested on: MOLT-4
SK-MEL-5 = tested on: SK-MEL-5
MDA-MB-231 = tested on: MDA-MB-231
ACHN = tested on: ACHN
HCT-15 = tested on: HCT-15
OVCAR-4 = tested on: OVCAR-4
RXF 393 = tested on: RXF 393
SF-539 = tested on: SF-539
LOX IMVI = tested on: LOX IMVI

SMILES | GI50 (HCC 2998) | GI50 (Malme-3M) | GI50 (M14) | GI50 (HL-60) | GI50 (U-251) | GI50 (OVCAR-5) | GI50 (MCF7) | GI50 (UO-31) | GI50 (786-0) | GI50 (NCI/ADR-RES) | GI50 (SK-MEL-2) | GI50 (MOLT-4) | GI50 (SK-MEL-5) | GI50 (MDA-MB-231) | GI50 (ACHN) | GI50 (HCT-15) [µM] | GI50 (OVCAR-4) | GI50 (RXF 393) | GI50 (SF-539) | GI50 (LOX IMVI)
COc1ccc(CCNC(=S)NC=C2C(=O)c3ccccc3C2=O)cc1OC | > 100 µM (inactive) | > 100 µM (inactive) | > 100 µM (inactive) | 93.1 µM (inactive) | > 100 µM (inactive) | > 100 µM (inactive) | 89.9 µM (inactive) | 27.7 µM (inactive) | > 100 µM (inactive) | > 100 µM (inactive) | > 100 µM (inactive) | 83.9 µM (inactive) | > 100 µM (inactive) | 68.1 µM (inactive) | > 100 µM (inactive) | > 100 | > 100 µM (inactive) | > 100 µM (inactive) | 0.433 µM (active) | > 100 µM (inactive)
CC1CNC(c2ccc(CN3CCC(C4CCN(Cc5ccc(C6=NC(C)CN6)cc5)CC4)CC3)cc2)=N1 (stereo not given) | 14.6 µM (inactive) | 23.9 µM (inactive) | 20.2 µM (inactive) | 36.1 µM (inactive) | 16 µM (inactive) | 24.9 µM (inactive) | 17 µM (inactive) | 26.5 µM (inactive) | 19.1 µM (inactive) | 34.4 µM (inactive) | 19.1 µM (inactive) | 19.7 µM (inactive) | 36.2 µM (inactive) | 17.7 µM (inactive) | 26.5 µM (inactive) | 27.5 | 16.8 µM (inactive) | 16.9 µM (inactive) | 20.3 µM (inactive) | 22.7 µM (inactive)
O=C1CC2SC(COCc3ccccc3)(CCN2Cc2ccccc2)C1 (stereo not given) | > 100 µM (inactive) | 39.3 µM (inactive) | 49.1 µM (inactive) | 18 µM (inactive) | 66.8 µM (inactive) | > 100 µM (inactive) | 31 µM (inactive) | 34.7 µM (inactive) | > 100 µM (inactive) | 65 µM (inactive) | > 100 µM (inactive) | 30.3 µM (inactive) | 19.5 µM (inactive) | > 100 µM (inactive) | 82.2 µM (inactive) | 40.6 | 61.9 µM (inactive) | > 100 µM (inactive) | > 100 µM (inactive) | 31.8 µM (inactive)
O=C(O)C1=CN(c2ccncc2)C(c2ccco2)=CC1c1ccccc1[N+](=O)[O-] (stereo not given) | 1.82 µM (inactive) | 9.53 µM (inactive) | 10.7 µM (inactive) | 3.19 µM (inactive) | 6.31 µM (inactive) | 7.13 µM (inactive) | 2.99 µM (inactive) | 10.4 µM (inactive) | 2.16 µM (inactive) | 22.9 µM (inactive) | 15.7 µM (inactive) | 3.03 µM (inactive) | 6.65 µM (inactive) | 14.6 µM (inactive) | 2.1 µM (inactive) | 2.05 | 13.9 µM (inactive) | 6.31 µM (inactive) | 3.11 µM (inactive) | 1.97 µM (inactive)
CC(C)OC(=O)C(NC(=O)C(CC(=O)OCc1ccccc1)NC(=O)OCc1ccccc1)NC(=O)C1C(C)(C)CCC1(C)C (stereo not given) | 24.9 µM (inactive) | 18 µM (inactive) | 21.5 µM (inactive) | 3.76 µM (inactive) | 2.14 µM (inactive) | 14.8 µM (inactive) | 14.9 µM (inactive) | 4.84 µM (inactive) | 2.22 µM (inactive) | 4.98 µM (inactive) | 19.5 µM (inactive) | 8.04 µM (inactive) | 13.7 µM (inactive) | 2.1 µM (inactive) | 3.56 µM (inactive) | 11 | 3.55 µM (inactive) | 4.43 µM (inactive) | 2.81 µM (inactive) | 4.56 µM (inactive)
CC(OCc1ccccc1)C(NC(=O)C1CSSCC(NC(=O)C(Cc2ccccc2)NC(=O)OCc2ccccc2)C(=O)NC(Cc2ccccc2)C(=O)NC(Cc2cn(C=O)c3ccccc23)C(=O)NC(CCCCNC(=O)OCc2ccccc2)C(=O)NC(C(C)OCc2ccccc2)C(=O)N1)C(N)=O (stereo not given) | 7.43 µM (inactive) | 41.1 µM (inactive) | 21.1 µM (inactive) | 0.977 µM (active) | 25.1 µM (inactive) | 45 µM (inactive) | 8.02 µM (inactive) | 78.3 µM (inactive) | 24.9 µM (inactive) | > 100 µM (inactive) | 13.1 µM (inactive) | 2.81 µM (inactive) | 24.5 µM (inactive) | 12.6 µM (inactive) | > 59.6 µM (inactive) | 32 | > 43.5 µM (inactive) | 97.1 µM (inactive) | > 100 µM (inactive) | 20 µM (inactive)
[N-]=[N+]=CC(=O)C1CCN(c2ccccc2)C1=O (stereo not given) | > 10 µM (inactive) | > 10 µM (inactive) | > 10 µM (inactive) | > 10 µM (inactive) | > 10 µM (inactive) | > 10 µM (inactive) | > 10 µM (inactive) | > 10 µM (inactive) | > 10 µM (inactive) | > 10 µM (inactive) | > 10 µM (inactive) | > 10 µM (inactive) | > 10 µM (inactive) | > 10 µM (inactive) | > 10 µM (inactive) | > 10 | > 10 µM (inactive) | > 10 µM (inactive) | > 10 µM (inactive) | > 10 µM (inactive)
COC(=O)C1=C(C)NC(C)=C(C(=O)OC)C1c1ccc(NO)cc1 | 18.7 µM (inactive) | 13 µM (inactive) | 14.6 µM (inactive) | 1.53 µM (inactive) | 15.9 µM (inactive) | 15.7 µM (inactive) | 8.11 µM (inactive) | 11.3 µM (inactive) | 15.5 µM (inactive) | 18.8 µM (inactive) | 17.1 µM (inactive) | 2.86 µM (inactive) | 15.4 µM (inactive) | 12.8 µM (inactive) | 12.6 µM (inactive) | 10.9 | 10.6 µM (inactive) | 15.8 µM (inactive) | 15.8 µM (inactive) | 5.68 µM (inactive)
